Here are results for five compounds from paper PMC11844072, “Novel 5,6-dichlorobenzimidazole derivatives as dual BRAFWT and BRAFV600E inhibitors: design, synthesis, anti-cancer activity and molecular dynamics simulations” (BMC Chemistry, 2025).

Assay [1] has as its system NCI-H522. Briefly: NCI 60 single concentration growth inhibition. Format: cell-based, human. To be noted: Homo sapiens, NCI-H522, Non-small cell lung cancer, read-out: GI%. The method in brief:
(§1)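 Read-out is SRB absorbance at 515 nm after TCA fixation (10% for adherent lines, 16% for suspension lines). Drugs were applied for 48 h following a 24 h plating period. Growth percentages came from time-zero, control and treated absorbances.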

Assay [2] concerns K-562. The assay is described as follows: NCI 60 single concentration growth inhibition. It is filed as cell-based, human. The note with it: Homo sapiens, K562, K-562, Leukemia, read-out: GI%. In outline: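 Single-dose screen at 10 µM across the NCI-60 panel, then five concentrations (10-fold or ½ log dilutions) for selected compounds. Cells in RPMI 1640, 5% FBS, 2 mM L-glutamine, preincubated 24 h, then drug exposure 48 h at 37 °C. TCA fixation, SRB stain read at 515 nm; percent growth calculated against time-zero and untreated controls.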

In assay [3] the test system is NCI/ADR-RES. The assay is described as follows: NCI 60 single concentration growth inhibition. To be noted: Homo sapiens, Ovarian cancer, read-out: GI%. Format: cell-based, human. In outline: as §1
Assay [4] relates to LOX IMVIL. The assay is described as follows: NCI 60 single concentration growth inhibition. It is filed as cell-based, human. To be noted: Homo sapiens, Melanoma, read-out: GI%. The method in brief:
as §1

The subject of assay [5] is U251. Briefly: NCI 60 single concentration growth inhibition. It is filed as cell-based, human. To be noted: Homo sapiens, U-251, U251, CNS cancer, read-out: GI%. In outline: as §1
Assay [6] relates to SW-620. Briefly: NCI 60 single concentration growth inhibition. Format: cell-based, human. To be noted: Homo sapiens, SW-620, Colon cancer, read-out: GI%. In outline: as §1
The subject of assay [7] is HCC-2998. The assay is described as follows: NCI 60 single concentration growth inhibition. To be noted: Homo sapiens, HCC-2998, Colon cancer, read-out: GI%. Format: cell-based, human. In outline: as §1
Assay [8] deals with COLO 205. The assay is described as follows: NCI 60 single concentration growth inhibition. It is filed as cell-based, human. The note with it: Homo sapiens, COLO 205, Colon cancer, read-out: GI%. In outline:
as §1

Assay [9] concerns HCT-15. Briefly: NCI 60 single concentration growth inhibition. It is filed as cell-based, human. To be noted: Homo sapiens, HCT-15, Colon cancer, read-out: GI%. The method in brief: as §1
Assay [10] relates to NCI-H522. Briefly: NCI 5-dose assay. It is filed as cell-based. The note with it: Homo sapiens; NCI-H522, Non-small cell lung cancer. The protocol: (§2) The synthesized dichlorobenzimidazoles 10a–p were assayed for their influence on divers cancer cell lines according to the method presented in the Additional file A.
(§3) 5. Screening of cytotoxic activity against a panel of sixty human tumor cell lines
(§4) The selected compounds by NCI were evaluated for their anticancer activity in a two-stage process. First, these compounds were screened against the full NCI 60 cell lines panel at a single high dose of 10 µM. Then, the output from the single dose screen is reported as a mean graph. […]
(§5) at five different minimal concentrations.
(§6) Assay protocol. The human tumor cell lines of the cancer screening panel are grown in RPMI 1640 medium containing 5% fetal bovine serum and 2 mM L-glutamine. For a typical screening experiment, cells are inoculated into 96 well microtiter plates in 100 µL at plating densities ranging from 5000 to 40,000 cells/well depending on the doubling time of individual cell lines. After cell inoculation, the microtiter plates are incubated at 37 °C, 5% CO 2, 95% air and 100% relative humidity for 24 h prior to addition of the experimental drugs.
(§7) After 24 h, two plates of each cell line are fixed in situ with TCA, to represent a measurement of the cell population for each cell line at the time of drug addition (Tz). The experimental drugs are solubilized in dimethyl sulfoxide at 400-fold the desired final maximum test concentration and stored frozen prior to use. At the time of drug addition, an aliquot of frozen concentrate is thawed and diluted to twice the desired final maximum test concentration with complete medium containing 50 µg/mL gentamicin. Additional four, 10-fold or ½ log serial dilutions are made to provide a total of five drug concentrations plus control.
(§8) Aliquots of […] of these different drug dilutions are added to the appropriate microtiter wells already containing […] of medium, resulting in the required final drug concentrations.
(§9) Following drug addition, the plates are incubated for an additional 48 h at 37 °C, 5% CO 2, 95% air, and 100% relative humidity. For adherent cells, the assay is terminated by the addition of cold TCA.
(§10) Cells are fixed in situ by the gentle addition of 50 µL of cold 50% (w/v) TCA (final concentration, 10% TCA) and incubated for 60 min at 4 °C. The supernatant is discarded, and the plates are washed five times with tap water and air dried. Sulforhodamine B (SRB) solution ([…]) at 0.4% (w/v) in 1% acetic acid is added to each well, and plates are incubated for 10 min at room temperature. After staining, unbound dye is removed by washing five times with 1% acetic acid and the plates are air dried. Bound stain is subsequently solubilized with 10 mM trizma base, and the absorbance is read on an automated plate reader at a wavelength of 515 nm. For suspension cells, the methodology is […]
(§11) the same except that the assay is terminated by fixing settled cells at the bottom of the wells by gently adding 50 µl of 80% TCA (final concentration, 16% TCA). Using the seven absorbance measurements [time zero, (Tz), control growth, (C), and test growth in the presence of drug at the five concentration levels (Ti)], the percentage growth is calculated at each of the drug concentrations […]
(§12) Percentage growth inhibition is calculated as: [(Ti Tz)/(C–Tz)] x 100 for concentrations for which Ti>/=Tz and [(Ti-Tz)/Tz] x 100 for concentrations for which Ti < Tz.
(§13) Three dose response parameters are calculated for each experimental agent. Growth […]
(§14) concentration resulting in a 50% reduction in the net protein increase (as measured by SRB staining) in control cells during the drug incubation. The drug concentration resulting in total growth inhibition (TGI) is calculated from Ti = Tz. […]
(§15) reduction in the measured protein at the end of the drug treatment as compared to that at the beginning) indicating a net loss of cells following treatment is calculated from [(Ti–Tz)/Tz] x 100 =
(§16) _50. Values are calculated for each of these three parameters if the level of activity is reached; […]

Assay [11] concerns K-562. Briefly: NCI 5-dose assay. Format: cell-based. To be noted: Homo sapiens, K562; K-562, Leukemia. The protocol: as §2, §3, §4, §5, §6, §7, §8, §9, §10, §11, §12, §13, §14, §15, §16
The test system of assay [12] is CCRF-CEM. Briefly: NCI 5-dose assay. Format: cell-based. The note with it: Homo sapiens, Leukemia. The protocol:
as §2, §3, §4, §5, §6, §7, §8, §9, §10, §11, §12, §13, §14, §15, §16

The subject of assay [13] is CAKI-1. The assay is described as follows: NCI 5-dose assay. It is filed as cell-based. The note with it: Homo sapiens; CAKI-1, Renal cancer. On the procedure:
as §2, §3, §4, §5, §6, §7, §8, §9, §10, §11, §12, §13, §14, §15, §16

Assay [14] has as its system MALME-3M. Briefly: NCI 5-dose assay. It is filed as cell-based. The note with it: Homo sapiens, Melanoma. On the procedure: as §2, §3, §4, §5, §6, §7, §8, §9, §10, §11, §12, §13, §14, §15, §16
In assay [15] the test system is SNB-75. The assay is described as follows: NCI 60 single concentration growth inhibition. Format: cell-based, human. The note with it: SNB-75, CNS cancer, 10 μM. In outline:
as §1

For assay [16], the system named is NCI-H322M. The assay is described as follows: NCI 60 single concentration growth inhibition. To be noted: Non-small cell lung cancer, 10 μM. Format: cell-based, human. In outline: as §1
Assay [17] relates to IGROV1. Briefly: NCI 60 single concentration growth inhibition. It is filed as cell-based, human. The note with it: IGROV1, Ovarian cancer, 10 μM. In outline: as §1
Assay [18] concerns UO-31. Briefly: NCI 60 single concentration growth inhibition. It is filed as cell-based, human. To be noted: UO-31, Renal cancer, 10 μM. The method in brief:
as §1

The test system of assay [19] is MALME-3M. The assay is described as follows: NCI 60 single concentration growth inhibition. It is filed as cell-based, human. To be noted: Melanoma, 10 μM. In outline:
as §1

One may read the GI50 as the concentration at which growth is held to half of that of the control. Read a high GI50 as lower sensitivity of the cells. As to `COC(=O)COc1ccc(C=NNC(=O)Cn2c(-c3ccc(OC)cc3)nc3cc(Cl)c(Cl)cc32)cc1` [Compound 10h, Methyl-2-(4-((2-(2-(5,6-dichloro-2-(4-methoxyphenyl)-1H-benzo[d]imidazol-1-yl)acetyl)hydrazono)methyl)phenoxy)acetate], the inhibition at 10 µM in [1] is 7.31%; in assay [2] it was 31.4%; in assay [3] it was < 5%; in [4] it was 39.5%; in [5], 10.1%; in assay [6], < 5%. Moreover, the inhibition at 10 µM in [7] was 142%; in [8], 51.5%; in assay [9], 40.3%. For the same compound, the GI50 in assay [10] stood at 14.7 µM; in [11] it was 11.3 µM; in assay [12] it was 4.78 µM; in assay [13], 5.74 µM; in assay [14], 9.18 µM.
Turning to `CCOC(=O)C(C)Oc1ccc(C=NNC(=O)Cn2c(-c3ccc(OC)cc3)nc3cc(Cl)c(Cl)cc32)cc1` (stereo not drawn) [Compound 10j, Ethyl-2-(4-((2-(2-(5,6-dichloro-2-(4-methoxyphenyl)-1H-benzo[d]imidazol-1-yl)acetyl) hydrazono)methyl)phenoxy)propanoate], the inhibition at 10 µM is 32.6% in [1]; 41.3% in assay [2]; < 5% in assay [3]; 18.4% in [4]; 5.26% in assay [5]; < 5% in assay [6]. Besides, the inhibition at 10 µM came to 15.4% in assay [7], 8.58% in assay [8] and 37.1% in [9]. Besides, the GI% in assay [15] was 5.72%; in assay [16] it was “– (GI% < 5%)”; in assay [17], 25.42%; in assay [18] it was 25.57%; in assay [19] it was “– (GI% < 5%)”.
On to `COc1ccc(-c2nc3cc(Cl)c(Cl)cc3n2CC(=O)NN=Cc2ccc(OC)c(O)c2)cc1` [Compound 10k, 2-(5,6-Dichloro-2-(4-methoxyphenyl)-1H-benzo[d]imidazol-1-yl)-N'-(3-hydroxy-4-methoxybenzylidene)acetohydrazide], for which the inhibition at 10 µM in assay [1] was determined as 37.8%; in assay [2], 59.9%; in assay [3] it was 40.1%; in assay [4], 38.4%; in assay [5], 38%; in assay [6], 6.39%. The figures for the inhibition at 10 µM in assay [7], in assay [8] and in [9] were 32.2%, 22.1% and 47.2%, respectively. Further, the GI% in assay [15] is listed as 33.65%; in assay [16], 8.94%; in [17] it was 10.22%; in assay [18] it was 55.02%; in assay [19], 23.45%.
Take `COC(=O)COc1cc(C=NNC(=O)Cn2c(-c3ccc(OC)cc3)nc3cc(Cl)c(Cl)cc32)ccc1OC` [Compound 10o, Methyl-2-(5-((2-(2-(5,6-dichloro-2-(4-methoxyphenyl)-1H-benzo[d]imidazol-1-yl)acetyl)hydrazono)methyl)-2-methoxyphenoxy)acetate]: the inhibition at 10 µM is 32.7% in assay [1]; 23.6% in [2]; 11.1% in assay [3]; 36.4% in assay [4]; 6.53% in [5]; < 5% in assay [6]. Besides, the results for the inhibition at 10 µM in assay [7], in assay [8] and in assay [9] were 83.8%, < 5% and 23.6%, respectively. Also, the GI% in [15] is 27.54%; in assay [16] it was 11.69%; in assay [17], 97.59%; in [18], 18.26%; in [19] it was “– (GI% < 5%)”. Besides, the GI50 in [10] was > 100 µM; in assay [11], > 100 µM; in assay [12] it was > 100 µM; in assay [13], 15.3 µM; in assay [14], > 100 µM.
Consider `COC(=O)COc1ccc(C=NNC(=O)Cn2c(-c3ccc(OC)cc3)nc3cc(Cl)c(Cl)cc32)cc1OC` [Compound 10p, Methyl-2-(4-((2-(2-(5,6-dichloro-2-(4-methoxyphenyl)-1H-benzo[d]imidazol-1-yl)acetyl)hydrazono)methyl)-2-methoxyphenoxy)acetate], for which the inhibition at 10 µM in assay [1] is 6.3%; in [2], 12.3%; in [3], 5.42%; in assay [4] it was 25.2%; in [5] it was < 5%; in assay [6], < 5%. The inhibition at 10 µM was 86.1% in assay [7], 34.9% in assay [8] and 21.5% in assay [9]. Also, the GI50 is > 72.5 µM in assay [10]; > 72.5 µM in assay [11]; > 72.5 µM in assay [12]; 2.77 µM in [13]; > 72.5 µM in assay [14].
